In brackets after ≈: the same amount, converted by molar mass.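 Grown in 96-well plates, cells were treated for 48 hours with each compound at five concentrations. Insufficient inhibition: endpoint recorded as highest concentration tested. The concentration for 50% growth inhibition is given as GI50. Definition used: TGI = concentration required for complete inhibition of growth.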
Legend:
Experiment in all cases: inhibition of tumour cell growth, NCI panel, 48 h
A549 NSCLC = system: A549 NSCLC
KM12 colon = system: KM12 colon
BT-549 breast = system: BT-549 breast
OVCAR-3 ovarian = system: OVCAR-3 ovarian
OVCAR-4 ovarian = system: OVCAR-4 ovarian
SNB-75 CNS = system: SNB-75 CNS
HOP-62 NSCLC = system: HOP-62 NSCLC
HOP-92 NSCLC = system: HOP-92 NSCLC
NCI-H226 lung = system: NCI-H226 lung
MALME-3M melanoma = system: MALME-3M melanoma

SMILES	TGI (A549 NSCLC)	TGI (KM12 colon)	TGI (BT-549 breast)	TGI (OVCAR-3 ovarian)	TGI (OVCAR-4 ovarian)	TGI (SNB-75 CNS)	TGI (HOP-62 NSCLC)	TGI (HOP-92 NSCLC)	TGI (NCI-H226 lung)	TGI (MALME-3M melanoma)	GI50 (A549 NSCLC)	GI50 (KM12 colon)	GI50 (BT-549 breast)	GI50 (OVCAR-3 ovarian)	GI50 (OVCAR-4 ovarian)	GI50 (SNB-75 CNS)	GI50 (HOP-62 NSCLC)	GI50 (MALME-3M melanoma)
CC(C)N(C)C(=O)C12C3C4C1C1C2C3C41C#N (stereo not given)	> 100 µM	> 100 µM	> 100 µM	> 100 µM	> 100 µM	> 100 µM	> 100 µM	> 100 µM	–	–	–	–	–	–	–	–	–	–
CC(C)CNC(=O)Cn1c(-c2ccccc2)cc2ccccc21	> 100 µM	> 100 µM	> 100 µM	> 100 µM	> 100 µM	> 100 µM	> 100 µM	–	> 100 µM	> 100 µM	–	–	–	–	–	–	–	–
COc1cc(C2SCC(=O)N2c2ccc(Oc3ccc(Cl)cc3)c(Cl)c2)cc(OC)c1OC (stereo not given)	69.2 µM	46 µM	32.5 µM	31.1 µM	> 100 µM	31.3 µM	35.2 µM	–	31.9 µM	37.5 µM	–	–	–	–	–	–	–	–
COc1cc(/C=C2/N=C(c3ccccc3)N(C3=NNC4(C(=O)N3)c3ccccc3-c3ccccc34)NC2=O)ccc1O	15 µg/mL	42.9 µg/mL	47.5 µg/mL	53.5 µg/mL	62.1 µg/mL	45.8 µg/mL	56.2 µg/mL	–	–	57 µg/mL	15 µg/mL (≈ 27 µM)	22.7 µg/mL (≈ 40.9 µM)	25.9 µg/mL (≈ 46.6 µM)	24.8 µg/mL (≈ 44.6 µM)	27.4 µg/mL (≈ 49.2 µM)	23.4 µg/mL (≈ 42.1 µM)	23.4 µg/mL (≈ 42 µM)	26.5 µg/mL (≈ 47.6 µM)
Cc1ccc(SC(=O)N2C(=S)NC(=NC3CCCCC3)C23CCCCC3)cc1	> 100 µM	> 100 µM	> 100 µM	> 100 µM	> 100 µM	> 100 µM	> 100 µM	> 100 µM	–	> 100 µM	–	–	–	–	–	–	–	–
Cc1cc(C)n(CN(Cn2nc(C)cc2C)C2CCCCC2)n1	> 100 µM	49.2 µM	49.6 µM	56.9 µM	67.9 µM	76.8 µM	69.6 µM	87.5 µM	–	51.9 µM	–	–	–	–	–	–	–	–
O=C(NCc1ccc(Cl)cc1)c1cc2sccc2nc1C(F)(F)F	> 100 µM	> 100 µM	> 100 µM	98.4 µM	44.8 µM	–	56.2 µM	> 100 µM	50 µM	> 100 µM	–	–	–	–	–	–	–	–
C[N+](C)(C)c1ncnc2c1ncn2C1CCCCO1 (stereo not given)	> 100 µM	> 100 µM	> 100 µM	> 100 µM	> 100 µM	> 100 µM	> 100 µM	> 100 µM	–	> 100 µM	–	–	–	–	–	–	–	–
COc1cccc(-c2cc(=O)c3ccc(C)nc3[nH]2)c1	> 100 µM	–	> 39.7 µM	–	> 100 µM	0.0496 µM	> 64.6 µM	3.85 µM	0.291 µM	> 100 µM	–	–	–	–	–	–	–	–
NCCCCNCCCNC(=O)c1nc(-c2csc(CCN)n2)sc1Cl	> 100 µM	> 100 µM	–	> 100 µM	> 100 µM	> 100 µM	> 100 µM	> 100 µM	> 100 µM	> 100 µM	–	–	–	–	–	–	–	–
CC(C)(C)OC[C@H](O)CC#N	> 100 µM	> 100 µM	> 100 µM	> 100 µM	> 100 µM	> 100 µM	> 100 µM	–	> 100 µM	> 100 µM	–	–	–	–	–	–	–	–
Cc1ccc(N=Nc2c(C)c(C#N)c(=S)n(C3OC(CO)C(O)C(O)C3O)c2-c2ccccc2)cc1 (stereo not given)	> 100 µM	58.9 µM	42.1 µM	41 µM	> 100 µM	55.2 µM	54.2 µM	–	–	47.7 µM	–	–	–	–	–	–	–	–
COc1c2cc(C(C)(C)C)cc1Cc1cccc(c1O)Cc1cc(C(C)(C)C)cc(c1OC)Cc1cccc(c1O)Cc1cc(C(C)(C)C)cc(c1OC)Cc1cccc(c1O)C2	> 100 µM	> 100 µM	–	> 100 µM	–	> 100 µM	> 100 µM	> 100 µM	–	> 100 µM	–	–	–	–	–	–	–	–
CC(=O)OCC=C(CCl)CCC(Br)C(C)(C)Br (mixture of isomers)	> 10 µM	> 10 µM	> 10 µM	> 10 µM	> 10 µM	> 10 µM	> 10 µM	–	> 10 µM	> 10 µM	–	–	–	–	–	–	–	–
CCO/C(O)=C(/C(=N)N1CCCC1)C(=O)Nc1cccc(C(F)(F)F)c1	> 100 µM	> 100 µM	> 100 µM	> 100 µM	> 100 µM	85.1 µM	> 100 µM	–	83.7 µM	> 100 µM	–	–	–	–	–	–	–	–
CN(C)CCNc1ncnc2nc(-c3ccc4ccccc4c3)[nH]c12	> 100 µM	> 100 µM	> 100 µM	> 100 µM	> 100 µM	–	> 100 µM	–	> 100 µM	> 100 µM	–	–	–	–	–	–	–	–
CCOC(=O)C(/C=N\C(=S)Nc1ccc(OCC)cc1)=C(/O)c1ccccc1	> 100 µM	> 100 µM	–	> 100 µM	> 100 µM	> 100 µM	> 100 µM	67.8 µM	> 100 µM	> 100 µM	–	–	–	–	–	–	–	–
c1ccc2c(c1)nc1n2CCSC1	> 100 µM	> 100 µM	> 100 µM	> 100 µM	> 100 µM	> 100 µM	> 100 µM	> 100 µM	–	–	–	–	–	–	–	–	–	–
COc1cc(/C=C2\CCC(C)C3=C2NC(=S)NC3c2cc(OC)c(OC)c(OC)c2)cc(OC)c1OC (stereo not given)	> 100 µM	> 100 µM	–	–	> 100 µM	66.3 µM	> 100 µM	> 100 µM	–	–	–	–	–	–	–	–	–	–
CCc1c(C)c(C#N)c(=S)n(C2OC(CO)C(O)C(O)C2O)c1C (stereo not given)	> 100 µM	> 100 µM	–	> 100 µM	> 100 µM	> 100 µM	> 100 µM	> 100 µM	> 100 µM	> 100 µM	–	–	–	–	–	–	–	–
COc1cc(C2S/C(=C/c3ccccc3)C(=O)N2c2ccc(Cl)c(Cl)c2)cc(OC)c1OC (stereo not given)	> 100 µM	> 70.3 µM	> 100 µM	> 100 µM	> 100 µM	–	> 100 µM	> 84.2 µM	> 100 µM	> 100 µM	–	–	–	–	–	–	–	–
COc1cc2c(cc1OC)-c1c3c(cc4c1[C@@H](C2)N(C)CC4)OCO3	32.2 µM	45.1 µM	–	44.6 µM	22.8 µM	23.9 µM	20.7 µM	32.4 µM	23 µM	20.1 µM	–	–	–	–	–	–	–	–

Reference: PubChem BioAssay (NCI)
